From patent US20240246964A1 (Arbutus Biopharma Corporation, priority 2021, published 2024) come the findings set out here.

The structures appear in SMILES notation.

Test [1] has as its target PD-L1 His protein / PD-1 Fc protein (Homo sapiens (Human), UniProt Q9NZQ7). Description: HTRF Assay (PD-1/PD-L1 interaction). The test is classed as binding. Conditions: PD-L1 His 6 nM, PD-1 Fc 6 nM.
The next test concerns the target human PD-L1 (Homo sapiens (Human), UniProt Q9NZQ7). The test is described as follows: T cell activation luciferase reporter cell culture system (T Cell Activation Assay). The test is classed as cell-based. To be noted: luciferase reporter assay; PD-L1 aAPC/CHO-K1 cells with PD-1 effector Jurkat T cells.

Chain of human PD-L1 (Q9NZQ7 19-290): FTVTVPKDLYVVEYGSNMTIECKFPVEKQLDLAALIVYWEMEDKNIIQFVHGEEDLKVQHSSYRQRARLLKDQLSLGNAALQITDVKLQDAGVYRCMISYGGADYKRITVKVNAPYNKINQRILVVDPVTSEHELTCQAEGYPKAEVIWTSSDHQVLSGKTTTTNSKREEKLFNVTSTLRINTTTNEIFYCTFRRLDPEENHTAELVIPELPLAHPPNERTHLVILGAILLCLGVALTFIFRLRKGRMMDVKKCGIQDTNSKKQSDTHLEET
Chain of PD-L1 His protein / PD-1 Fc protein (Q9NZQ7 19-238): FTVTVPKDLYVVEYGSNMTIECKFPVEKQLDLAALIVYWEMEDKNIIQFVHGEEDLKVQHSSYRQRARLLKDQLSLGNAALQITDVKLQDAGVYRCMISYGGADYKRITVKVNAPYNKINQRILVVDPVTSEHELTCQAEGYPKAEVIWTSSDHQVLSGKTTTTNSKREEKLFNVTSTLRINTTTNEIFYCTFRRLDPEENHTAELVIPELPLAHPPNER

What is called IC50 is the concentration that gives 50% inhibition. As usually defined, the EC50 is the concentration giving half of the maximal effect. Read a low EC50 as greater potency. As for `COc1cc(-c2nccc(-c3cccc(-c4ccc(CN5CC(C)(O)C5)c(OC)n4)c3Cl)c2Cl)ccc1CN1CC(C)(O)C1` [Example 396, 1-((6-(2-Chloro-3-(3-chloro-2-(4-((3-hydroxy-3-methylazetidin-1-yl)methyl)-3-methoxyphenyl)pyridin-4-yl)phenyl)-2-methoxypyridin-3-yl)methyl)-3-methylazetidin-3-ol], the IC50 in test [1] came to 1.38 nM. The same molecule came in with an EC50 on human PD-L1 of 15.3 nM.
The molecule `COc1nc(-c2cccc(-c3ccnc(-c4cc(Cl)c5c(c4)CCN(CC4CCN(C(C)=O)CC4)C5)c3Cl)c2Cl)ccc1CNC[C@@H]1CCC(=O)N1` [Example 289, (S)-5-((((6-(3-(2-(2-((1-Acetylpiperidin-4-yl)methyl)-8-chloro-1,2,3,4-tetrahydroisoquinolin-6-yl)-3-chloropyridin-4-yl)-2-chlorophenyl)-2-methoxypyridin-3-yl)methyl)amino)methyl)pyrrolidin-2-one] yielded an IC50 in test [1] of 2.95 nM. The EC50 at human PD-L1 was determined as 87.6 nM.
Turning to `COc1nc(-c2cccc(-c3ccnc(-c4ccc5c(c4)CCC[C@@H]5NC[C@@H]4CCC(=O)N4)c3Cl)c2Cl)ccc1CNC[C@@H]1CCC(=O)N1` [Compound 184, (S)-5-((((6-(2-chloro-3-(3-chloro-2-((S)-5-((((S)-5-oxopyrrolidin-2-yl)methyl)amino)-5,6,7,8-tetrahydronaphthalen-2-yl)pyridine-4-yl)phenyl)-2-methoxypyridin-3-yl)methyl)amino)methyl)pyridine1335ne-2-one], in test [1], the concentration for half-maximal inhibition (IC50) stood at 15.5 nM. The molecule also displayed an EC50 at human PD-L1 of 80.4 nM.
Molecule `COc1nc(-c2cccc(-c3ccnc(-c4ccc5c(CNC6CCOCC6)cn(C)c5c4)c3Cl)c2Cl)ccc1CNC[C@@H]1CCC(=O)N1` [Compound 42, (S)-5-((((6-(2-chloro-3-(3-chloro-2-(1-methyl-3-(((tetrahydro-2H-pyran-4-yl)amino)methyl)-1H-indol-6-yl)pyridin-4-yl)phenyl)-2-methoxypyridin-3-yl)methyl)amino)methyl)pyrrolidin-2-one] returned an IC50 in test [1] of 0.1 nM. The response at human PD-L1 was half-maximal at 88.6 nM (EC50).
In test [1], `COc1nc(-c2cccc(-c3ccnc(-c4cc(OC)c5nc(CNC(C)C)nn5c4)c3Cl)c2Cl)ccc1CNC(C)C` [Compound 763, N-((6-(2-chloro-3-(3-chloro-2-(2-((isopropylamino)methyl)-8-methoxy-[1,2,4]triazolo[1,5-a]pyridin-6-yl)pyridin-4-yl)phenyl)-2-methoxypyridin-3-yl)methyl)propan-2-amine] yielded a half-maximal inhibitory concentration (IC50) of 0.25 nM. The EC50 at human PD-L1 is 650 nM.
In the case of `CNCc1ccc(-c2nccc(-c3cccc(-c4ccc(CNC)c(OC)n4)c3Cl)c2Cl)cc1OC` [Compound 136, 1-(6-(2-chloro-3-(3-chloro-2-(3-methoxy-4-((methylamino)methyl)phenyl)pyridin-4-yl)phenyl)-2methoxypyridin-3-yl)-N-methylmethanamine], half-maximal inhibition in test [1] (IC50) was put at 0.708 nM. A half-maximal response on human PD-L1 (EC50) required 16.3 nM.
In turn, `COc1cc(-c2nccc(-c3cccc(-c4ccc(CNC5CCOCC5)c(OC)n4)c3C(F)(F)F)c2Cl)ccc1CNC1CCOCC1` [Example 529, N-((6-(3-(3-Chloro-2-(3-methoxy-4-(((tetrahydro-2H-pyran-4-yl)amino)methyl)phenyl)pyridin-4-yl)-2-(trifluoromethyl)phenyl)-2-methoxypyridin-3-yl)methyl)tetrahydro-2H-pyran-4-amine] had an IC50 in test [1] of 110 nM. Also, the EC50 at human PD-L1 was no less than 10000 nM.
In the same order, the values of `COc1cc(-c2nccc(-c3cccc(-c4ccc(CNC[C@@H]5CCC(=O)N5)c(OC)n4)c3Cl)c2Cl)cc(C)c1CN(C)C[C@@H]1CCC(=O)N1` [Compound 117, (S)-5-((((6-(2-chloro-3-(3-chloro-2-(3-methoxy-5-methyl-4-((methyl(((S)-5-oxopyrrolidin-2-yl)methyl)amino)methyl)phenyl)pyridin-4-yl)phenyl)-2-methoxypyridin-3-yl)methyl)amino)methyl)pyrrolidin-2-one] are 1.3 nM and 30.7 nM.
On to `COc1nc(-c2cccc(-c3ccnc(-c4cc(OC)c5nc(CNC[C@@H]6CCC(=O)N6)cn5c4)c3Cl)c2Cl)ccc1CNC[C@@H]1CCC(=O)N1` [Example 310, (S)-5-((((6-(2-Chloro-3-(3-chloro-2-(8-methoxy-2-(((((S)-5-oxopyrrolidin-2-yl)methyl)amino)methyl)imidazo[1,2-a]pyridin-6-yl)pyridin-4-yl)phenyl)-2-methoxypyridin-3-yl)methyl)amino)methyl)pyrrolidin-2-one], for which, in test [1], the IC50 was determined as 1.8 nM. The molecule also yielded an EC50 at human PD-L1 of 90.5 nM.
Taken in the same sequence, the figures for `COc1cc(-c2nccc(-c3cccc(-c4ccc(CNC5CCN(CCO)CC5)c(OC)n4)c3Cl)c2Cl)ccc1CNC1CCN(CCO)CC1` [Example 328, 2-(4-(((6-(2-Chloro-3-(3-chloro-2-(4-(((1-(2-hydroxyethyl)piperidin-4-yl)amino)methyl)-3-methoxyphenyl)pyridin-4-yl)phenyl)-2-methoxypyridin-3-yl)methyl)amino)piperidin-1-yl)ethan-1-ol] were 1.52 nM and 28.1 nM.
Regarding `COc1nc(-c2cccc(-c3ccnc(-c4ccc5c(CNC[C@@H]6CCO6)cn(C)c5c4)c3Cl)c2Cl)ccc1CNC[C@@H]1CCC(=O)N1` [Compound 34, (S)-5-((((6-(2-chloro-3-(3-chloro-2-(1-methyl-3-(((((S)-oxetan-2-yl)methyl)amino)methyl)-1H-indol-6-yl)pyridin-4-yl)phenyl)-2-methoxypyridin-3-yl)methyl)amino)methyl)pyrrolidin-2-one], in test [1], inhibition was half-maximal at 72.1 nM (IC50). Besides, a half-maximal response at human PD-L1 (EC50) required 122 nM.
Taken in the same sequence, the figures for `COc1nc(-c2cccc(-c3ccnc(-c4ccc5c(c4)CN(CCNC[C@@H]4CCC(=O)N4)C5=O)c3Cl)c2Cl)ccc1CNC[C@@H]1CCC(=O)N1` [Compound 66, 5-(3-chloro-4-(2-chloro-3-(6-methoxy-5-(((((S)-5-oxopyrrolidin-2-yl)methyl)amino)methyl)pyridin-2-yl)phenyl)pyridin-2-yl)-2-(2-((((S)-5-oxopyrrolidin-2-yl)methyl)amino)ethyl)isoindolin-1-one] were 0.6 nM and 158 nM.
In turn, `COc1cc(-c2cccc(-c3ccnc(-c4cnc(CNC5CCN(C(C)=O)CC5)c(OC)c4)c3Cl)c2Cl)ccc1CNC1CCN(C(C)=O)CC1` [Compound 500, 1-(4-(((4-(4′-(((1-acetylpiperidin-4-yl)amino)methyl)-2-chloro-3′-methoxy-[1,1′-biphenyl]-3-yl)-3-chloro-5′-methoxy-[2,3′-bipyridin]-6′-yl)methyl)amino)piperidin-1-yl)ethan-1-one] had an IC50 in test [1] of 1.95 nM. This molecule registered an EC50 at human PD-L1 of 120 nM.
Taken in the same sequence, the figures for `COc1nc(-c2cccc(-c3ccnc(-c4ccc5c(c4)CNC5)c3Cl)c2Cl)ccc1CNC1CCN(C(C)=O)CC1` [Compound 162, 1-(4-(((6-(2-chloro-3-(3-chloro-2-(isoindolin-5-yl)pyridine-4-yl)phenyl)-2-methoxypyridin-3-yl)methyl)amino)piperidin-1-yl)ethan-1-one] were 0.78 nM and 5160 nM.
In the case of `COc1cc(-c2nccc(-c3cccc(-c4ccc(CNC5CCOCC5)c(OC)n4)c3Cl)c2Cl)ccc1CN1CC2(CCOCC2)C1` [Example 530, N-((6-(3-(2-(4-((7-Oxa-2-azaspiro[3.5]nonan-2-yl)methyl)-3-methoxyphenyl)-3-chloropyridin-4-yl)-2-chlorophenyl)-2-methoxypyridin-3-yl)methyl)tetrahydro-2H-pyran-4-amine], the IC50 in test [1] was determined as 2.51 nM. In addition, the EC50 on human PD-L1 worked out at 39.5 nM.
For the molecule `COc1nc(-c2cccc(-c3ccnc(-c4cc(OC)c5nc(CN6CC7(CCC(=O)N7)C6)cn5c4)c3Cl)c2Cl)ccc1CNC[C@@H]1CCC(=O)N1` [Example 320, (S)-2-((6-(3-Chloro-4-(2-chloro-3-(6-methoxy-5-((((5-oxopyrrolidin-2-yl)methyl)amino)methyl)pyridin-2-yl)phenyl)pyridin-2-yl)-8-methoxyimidazo[1,2-a]pyridin-2-yl)methyl)-2,5-diazaspiro[3.4]octan-6-one], the IC50 in test [1] stood at 0.231 nM. The molecule further returned an EC50 on human PD-L1 of 51.2 nM.
Taken in the same sequence, the figures for `COc1cc(-c2nccc(-c3cccc(-c4cnc(CNC5CCN(C(C)=O)CC5)c(OC)n4)c3Cl)c2Cl)ccc1CNC1CCN(C(C)=O)CC1` [Example 311, 1-(4-(((5-(3-(2-(4-(((1-Acetylpiperidin-4-yl)amino)methyl)-3-methoxyphenyl)-3-chloropyridin-4-yl)-2-chlorophenyl)-3-methoxypyrazin-2-yl)methyl)amino)piperidin-1-yl)ethan-1-one] were 0.907 nM and 152 nM.
As for `COc1cc(-c2nccc(-c3cccc(NC(=O)c4ccc(CNC[C@@H]5CCC(=O)N5)cn4)c3Cl)c2Cl)ccc1CNC[C@@H]1CCC(=O)N1` [Example 675, N-(2-Chloro-3-(3-chloro-2-(3-methoxy-4-(((((S)-5-oxopyrrolidin-2-yl)methyl)amino)methyl)phenyl)pyridin-4-yl)phenyl)-5-(((((S)-5-oxopyrrolidin-2-yl)methyl)amino)methyl)picolinamide], it took 0.26 nM to reach half-maximal inhibition in test [1] (IC50). This molecule also yielded an EC50 on human PD-L1 of 26.9 nM.
In the same order, the values of `COc1cc(-c2nccc(-c3cccc(-c4ccc(CNC5CC6(COC6)C5)c(OC)n4)c3Cl)c2Cl)cnc1CNC1CC2(COC2)C1` (stereo not shown) [Compound 429, N-((4-(3-(5-(((2-Oxaspiro[3.3]heptan-6-yl)amino)methyl)-6-methoxypyridin-2-yl)-2-chlorophenyl)-3-chloro-5′-methoxy-[2,3′-bipyridin]-6′-yl)methyl)-2-oxaspiro[3.3]heptan-6-amine] are 4.1 nM and 71.4 nM.
For the molecule `COc1cc(-c2ncnc(-c3cccc(-c4ccc(CNC[C@@H]5CCC(=O)N5)c(OC)n4)c3Cl)c2OC)ccc1CNC[C@@H]1CCC(=O)N1` [Example 716, (S)-5-((((6-(2-chloro-3-(5-methoxy-6-(3-methoxy-4-(((((S)-5-oxopyrrolidin-2-yl)methyl)amino)methyl)phenyl)pyrimidin-4-yl)phenyl)-2-methoxypyridin-3-yl)methyl)amino)methyl)pyrrolidin-2-one], it took 0.6 nM to reach half-maximal inhibition in test [1] (IC50). The same molecule displayed an EC50 at human PD-L1 of 940 nM.
